Measured values as given in patent publication US20050169883A1, “Preblocking with non-ha gags increases effectiveness of ha conjugated anticancer agents” (priority 2002, published 2005).

How the values were obtained:
[1] = test system: HCT-116 human colon cancer cells; test: In vitro cytotoxicity, MTT dye uptake; assay type: cell-based; details: 72 h, HCT-116 cells, 3 days incubation, DOX equivalent
Experimental: (§1) HBL-100, a human breast cancer cell-line, was maintained in culture in high glucose D-MEM (Dulbecco's Modified Eagle Medium), which was supplemented with 10% γ-irradiated fetal bovine serum (FBS) and 1% sodium pyruvate; SK-OV-3, a human ovarian cancer cell-line was cultured in D-MEM/F12+10% FBS; HCT-116, a colon tumor cell-line, was maintained in culture in α-MEM (Minimal Essential Medium, Eagle)+10% FBS. 4T1 mouse breast cancer cells and TSU human bladder cancer cells were cultured with 10% calf serum-90% Dulbecco's modified Eagle's medium (DMEM) at 37° C. in 5% CO2 incubator.
(§2) All ^1H NMR spectral data were obtained using an NR-200 FT-NMR spectrometer at 200 MHz (IBM Instruments Inc.). UV-Vis spectra were recorded on a Hewlett Packard 8453 UV-Vis diode array spectrophotometer (Palo Alto, Calif.). HA was characterized by gel permeation chromatography (GPC) was on the following system: Waters 515 HPLC pump, Waters 410 differential refractometer, and Waters™ 486 tunable absorbance detector, Waters Ultrahydrogel 250 and 2000 columns (7.8 mm ID×30 cm) (Milford, Mass.) were used for GPC analysis, the eluent was 150 mM pH 6.5 phosphate buffer/MeOH=80:20 (v/v), and the flow rate was 0.5 in L/min. The system was calibrated with HA standards supplied by Dr. O. Wik (Pharmacia). […] Cell viability in cell culture was determined by thiazoyl blue (MTT) dye uptake protocols measured at 540 nm, which was recorded on a BIO-RAD M-450 microplate reader (Hercules, Calif.). […] Fluorescence images were taken using FITC settings with the 488 nm excitation line and a 522 nm 32 bandpass filter was used to collect the images.
(§3) The cytotoxicity of HA-DOX and HPMA-HA-DOX conjugates against HBL-100, SKOV-3 and HCT-116 cells was determined using a 96-well plate format in quadruplicate with increasing doses range from 0.001-10 mg/mL of DOX equivalent. […] Thus, a 2-μL aliquot of the stock solution was added to each well, and cells were continuously incubated at 37° C., 5% CO2 for 3 days with the test substance, and cell viability was determined using MTT dye uptake at 540 nm. […]

[2] = test system: SK-OV-3 human ovarian cancer cells; test: In vitro cytotoxicity, MTT dye uptake; assay type: cell-based; details: 72 h, SK-OV-3 cells, 3 days incubation, DOX equivalent
Experimental: as §1, §2, §3

[3] = test system: HBL-100 human breast cancer cells; test: In vitro cytotoxicity, MTT dye uptake; assay type: cell-based; details: 72 h, HBL-100 cells, 3 days incubation, DOX equivalent
Experimental: as §1, §2, §3

[4] = test system: human prostate cancer cell-line DU-145; test: In vitro cytotoxicity against prostate cancer cell line; assay type: cell-based; details: DU-145 cells, DOX equivalent
Source text: The in vitro cytotoxicity of HPMA-HA-DOX with 17% and 36% HA loading against cultured prostate cancer cell line DU-145 was examined. FIG. 8 depicts the in vitro cytotoxicity results of the HPMA-HA-DOX bioconjugates. The cytotoxicity of targeted HPMA-HA-DOX bioconjugates were dramatically higher than non-targeted HPMA-DOX conjugate (Table 2), and 8- to 12-fold higher than the free DOX drug against this prostate cancer cell-line.

4T1 breast cancer cells = test: Spontaneous lymph node metastasis of 4T1 cells injected into foot pad; assay type: in vivo, mouse; details: for Weight of lymph node: s.c. three times a week for three weeks, 4 mg/kg Taxol equivalent
Experimental: The 4T1 breast cancer cells were injected into foot pat of syngenic BABL/c mice. […] About 0.2 ml of above agents were administrated by subcutaneous (s.c.) injection at the middle of leg three times a week, from where HA-drug could be drained/absorbed into popliteal and inguinal lymph path, in which the spontaneous metastases were expected to take place.
The lymph nodes were carefully dissected out from surrounding fat, measured for the weights and processed for pathology.

4T1 tumors = test: Chondroitin sulfate blocking study, survival of mice bearing 4T1 tumors; assay type: in vivo, mouse; details: experiment period of 33 days; ten i.p. injections every other day
Experimental: This procedure was carried out every other day for 20 days, and mice received a total of ten injections. The mice were recorded for their survival days and the survival rate was calculated.
This procedure was carried out every other day for 20 days, and mice received a total of ten injections. The mice were recorded for their survival during a 33 day experimental period s and the survival rate was calculated.

[5] = test system: 4T1 mouse breast cancer cells; test: In vivo anti-tumor effect, 4T1 tumor model in BABL/c mice; details: 4 mg/kg Taxol or equivalent, i.p. every other day; versus vehicle and Taxol alone
Experimental: The 4T1 mouse breast cancer cells (10^6/site) were subcutaneously injected into either BABL/c mice and allowed to grow for 2 days for the tumor to be established. […] The injection was carried out every other day for two to four weeks. The tumor sizes were measured twice a week. At the end of experiment, the mice were sacrificed and the tumor were harvested, photographed and weighted.

TSU cells = test: HA degradation assay; assay type: cell-based, human; details: 48 hours, KM201 200 μg/ml or chloroquine 0.1 mM
Experimental: (§4) The assay was carried out as described (CBU) with some modification. […] In some wells, the media contained 200 μg/ml of KM201 (a neutralization antibody against CD44) or 0.1 mM of chloroquine (an inhibitor of lysosomal enzymes). The media were collected, which contained some of the released and degraded ^3H-HA. […] The media and the supernatant from cells were centrifuged with Centricon 30 (Amicon, Danvers, Mass.). The un-degraded high MW ^3H-HA was retained in the upper chamber.
(§5) This mixture was then separated by filter membrane with MW cut of 30,000 Dalton.

4T1 cells = test: HA degradation assay; assay type: cell-based, mouse
Experimental: as §4, §5
CD44 was examined to determine if it was expressed by 4T1 cells and if it could interact with HA. First, CD44 was detected by Western blotting. […] The binding was specific as it could be inhibited by excess of cold HA (FIG. 14B).

[6] = test system: HA binding sites in the major organs; test: Chondroitin sulfate pretreatment, organ and tumor up-take of 3H-HA; assay type: in vivo, mouse
Experimental: The tumors and organs were collected, weighted, and homogenized with ultrasound to make tissue homogenates. The protein concentration was normalized to 0.1 mg/ml. Then, 300 μl of tissue homogenates were mixed with 2.5 ml of scintillation solution and counted for the radioactivity. […] Twenty-four hours later, the mice were sacrificed and the homogenates of tumors and organs were counted for the radioactivity.
This approach did reduce the HA taken up by liver and increased the amount of HA accumulated in tumors.
One day later, the tumors and organs were collected, weighed, homogenized with ultrasound to make tissue lysate at a protein concentration of 0.1 mg/ml. Then, 300 μl of tissue lysate were mixed with 2.5 ml of scintillation solution and counted for the radioactivity.

COc1cccc2c1C(=O)c1c(O)c3c(c(O)c1C2=O)C[C@@](O)(C(=O)CO)C[C@@H]3O[C@H]1C[C@H](N)[C@H](O)[C@H](C)O1 [DOX, Doxorubicin]
IC50 [1]: 0.35 µM | IC50 [2]: 0.92 µM | IC50 [3]: 0.15 µM | IC50 [4]: 31.5 µM

CC(=O)O[C@H]1C(=O)[C@@]2(C)[C@H]([C@H](OC(=O)c3ccccc3)[C@]3(O)C[C@H](OC(=O)[C@H](O)[C@@H](NC(=O)c4ccccc4)c4ccccc4)C(C)=C1C3(C)C)[C@]1(OC(C)=O)CO[C@@H]1C[C@@H]2O [Taxol]
Inhibition ratio (%) (4T1 breast cancer cells; inguinal lymph node metastasis): 31.8% | Weight of lymph node (4T1 breast cancer cells; inguinal lymph node): 9.00 ± 0.79 | Inhibition ratio (%) (4T1 breast cancer cells; popliteal lymph node metastasis): −1.7% | Weight of lymph node (4T1 breast cancer cells; popliteal lymph node): 46.70 ± 5.05 | survival rate (4T1 tumors): 60% | size of 4T1 tumors [5]: did not reduce the size

CCN(CC)CCCC(C)Nc1ccnc2cc(Cl)ccc12 (stereo not shown) [chloroquine]
degradation of high MW 3H-HA by cells (TSU cells): reduce the degraded ^3H-HA | degradation of high MW 3H-HA by cells (4T1 cells; 48 hours, KM201 200 μg/ml or chloroquine 0.1 mM): reduce the degraded ^3H-HA | CD44 mediated degradation of 3H-HA (4T1 cells; 72 hours): inhibited

chondroitin sulfate
up-take of HA in the major organs ([6]; chondroitin sulfate i.v. two hours before 3H-HA, 24 hours): reduced their up-take of HA | 3H-HA in tumors versus untreated mice ([6]; chondroitin sulfate pretreatment): higher | amount of 3H-HA in the liver versus vehicle alone ([6]; liver monitored for two days): much lower
